# Measurements as given in patent US20240208942A1, “METAP-2 INHIBITORS, PHARMACEUTICAL COMPOSITIONS AND THERAPEUTIC METHODS THEREOF” (CANWELL BIOTECH LIMITED, priority 2021, published 2024).
# Biological target: T1, recombinant human MetAP-2 (Homo sapiens, UniProt P50579)
# T1 construct: His tag (N); TEV cleavage site (N); made in house
# Assay: Enzymatic activity assay of Methionine aminopeptidase 2 (enzyme coupled assay, Met-Ala-Ser substrate)
# Assay type: biochemical
# Details: recombinant human MetAP-2 (His-Tev-MetAP-2), absorbance at 450 nm, kinetic mode, read-out: MeAP2 IC50
# Description: The MetAP-2 activity was determined by an enzyme coupled assay using the tripeptide Met-Ala-Ser (MAS) as substrate and recombinant human MetAP-2 (His-Tev-MetAP-2, prepared in-house). The released methionine is converted by L-amino acid oxidase (AAO) to Met ox and hydrogen peroxide is released. In a second step horse radish peroxidase catalyses the oxidation of the leuko dye dianisidine to dianisidine ox with hydrogen peroxide as co-substrate. The produced dianisidine ox was detected photometrically as increase in absorbance at 450 nm. MetAP-2 activity was determined in a kinetic measurement mode. The release of one molecule methionine corresponds to the production of one molecule dianisidine ox. The MetAP-2 enzymatic activity is directly corresponding to the increase in absorbance per time.
# T1 sequence (P50579 whole entry): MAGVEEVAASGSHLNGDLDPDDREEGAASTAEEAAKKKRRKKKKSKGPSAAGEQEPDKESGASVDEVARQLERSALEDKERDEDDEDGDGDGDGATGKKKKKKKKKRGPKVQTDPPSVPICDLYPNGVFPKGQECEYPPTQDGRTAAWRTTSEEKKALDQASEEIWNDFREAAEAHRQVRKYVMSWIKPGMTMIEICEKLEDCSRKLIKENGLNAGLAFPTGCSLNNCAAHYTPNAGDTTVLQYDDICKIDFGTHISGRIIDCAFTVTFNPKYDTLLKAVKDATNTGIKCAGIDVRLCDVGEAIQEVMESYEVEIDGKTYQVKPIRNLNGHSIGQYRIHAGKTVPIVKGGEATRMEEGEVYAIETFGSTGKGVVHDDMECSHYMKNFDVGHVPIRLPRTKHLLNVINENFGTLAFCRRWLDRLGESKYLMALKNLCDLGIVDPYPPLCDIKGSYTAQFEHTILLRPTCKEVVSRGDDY
row,IC50,Compound
1,< 1000 nM,"O=C1Nc2ccc(N3CC[C@](O)(C(=O)NCc4cc(F)cc(F)c4)C3=O)cc2C12CC2 [Compound 16, (S)-N-(3,5-difluorobenzyl)-3-hydroxy-2-oxo-1-(2′-oxospiro[cyclopropane-1,3′-indoline]-5′-yl)pyrrolidine-3-carboxamide]"
2,< 1000 nM,"O=C(NCc1cc(F)cc(F)c1)[C@@]1(O)CCN(c2ccc(P(=O)(C3CC3)C3CC3)cc2)C1=O [Compound 10, (S)-1-(4-(dicyclopropylphosphoryl)phenyl)-N-(3,5-difluorobenzyl)-3-hydroxy-2-oxopyrrolidine-3-carboxamide]"
3,< 1000 nM,"O=C1Nc2ccc(N3CC[C@](O)(C(=O)NCc4cc(F)cc(F)c4)C3=O)cc2C12CCCC2 [Compound 15, (S)-N-(3,5-difluorobenzyl)-3-hydroxy-2-oxo-1-(2′-oxospiro[cyclopentane-1,3′-indoline]-5′-yl)pyrrolidine-3-carboxamide]"
4,< 1000 nM,"O=C(NCc1cc(F)cc(Cl)c1)[C@@]1(O)CCN(c2ccc3c(c2)C2(CC2)S(=O)(=O)N3)C1=O [Compound 20, (S)-N-(3-chloro-5-fluorobenzyl)-1-(2,2-dioxido-1H-spiro[benzo[c]isothiazole-3,1′-cyclopropan]-5-yl)-3-hydroxy-2-oxopyrrolidine-3-carboxamide]"
5,< 1000 nM,"O=C1Nc2ccc(N3CC[C@](O)(C(=O)NCc4cc(F)cc(Cl)c4)C3=O)cc2C12CC2 [Compound 13, (S)-N-(3-chloro-5-fluorobenzyl)-3-hydroxy-2-oxo-1-(2′-oxospiro[cyclopropane-1,3′-indoline]-5′-yl)pyrrolidine-3-carboxamide]"
6,< 1000 nM,"C[Si](C)(C)c1ccc(N2CC[C@](O)(C(=O)NCc3cc(F)cc(F)c3)C2=O)cc1 [Compound 11, (S)-N-(3,5-difluorobenzyl)-3-hydroxy-2-oxo-1-(4-(trimethylsilyl)phenyl)pyrrolidine-3-carbo xamide]"
7,< 1000 nM,CP(C)(=O)c1ccc(N2CC[C@@](O)(C(=O)NCc3cc(F)cc(Cl)c3)C2=O)cc1 [Compound 9a]
8,> 10000 nM,CC(C)P(=O)(c1ccc(N2CC[C@@](O)(C(=O)NCc3cc(F)cc(Cl)c3)C2=O)cc1)C(C)C [Compound 7a]
9,1000 to 10000 nM,O=C1Nc2ccc(N3CC[C@@](O)(C(=O)NCc4cc(F)cc(Cl)c4)C3=O)cc2C12CC2 [Compound 13a]
10,< 1000 nM,"CP(C)(=O)c1ccc(N2CC[C@](O)(C(=O)NCc3cc(F)cc(Cl)c3)C2=O)cc1 [Compound 9, (S)-N-(3-chloro-5-fluorobenzyl)-1-(4-(dimethylphosphoryl)phenyl)-3-hydroxy-2-oxopyrrolidine-3-carboxamide]"
11,< 1000 nM,"O=C(NCc1cc(F)cc(F)c1)[C@@]1(O)CCN(c2ccc3c(c2)C2(CCC2)S(=O)(=O)N3)C1=O [Compound 18, (S)-N-(3,5-difluorobenzyl)-1-(2,2-dioxido-1H-spiro[benzo[c]isothiazole-3,1′-cyclobutan]-5-y 1)-3-hydroxy-2-oxopyrrolidine-3-carboxamide]"
12,< 1000 nM,"O=C1Nc2ccc(N3CC[C@](O)(C(=O)NCc4cc(F)cc(Cl)c4)C3=O)cc2C12CCC2 [Compound 14, (S)-N-(3-chloro-5-fluorobenzyl)-3-hydroxy-2-oxo-1-(2′-oxospiro[cyclobutane-1,3′-indoline]-5′-yl)pyrrolidine-3-carboxamide]"
13,< 1000 nM,"O=C(NCc1cc(F)cc(Cl)c1)[C@@]1(O)CCN(c2ccc(P(=O)(C3CC3)C3CC3)cc2)C1=O [Compound 8, (S)-N-(3-chloro-5-fluorobenzyl)-1-(4-(dicyclopropylphosphoryl)phenyl)-3-hydroxy-2-oxopy rrolidine-3-carboxamide]"
14,1000 to 10000 nM,O=C(NCc1cc(F)cc(F)c1)[C@]1(O)CCN(c2ccc(P(=O)(C3CC3)C3CC3)cc2)C1=O [Compound 10a]
15,< 1000 nM,"O=C1Nc2ncc(N3CC[C@](O)(C(=O)NCc4cc(F)cc(Cl)c4)C3=O)cc2C12CC2 [Compound 17, (S)-N-(3-chloro-5-fluorobenzyl)-3-hydroxy-2-oxo-1-(2′-oxo-1′,2′-dihydrospiro[cyclopropane-1,3′-pyrrolo[2,3-b]pyridine]-5′-yl)pyrrolidine-3-carboxamide]"
16,< 1000 nM,"NC(=O)c1cc2cc(N3CCC(O)(C(=O)NCc4cc(F)cc(F)c4)C3=O)sc2[nH]1 (stereo not drawn) [Compound 23, 2-(3-(3,5-difluorobenzylcarbamoyl)-3-hydroxy-2-oxopyrrolidin-1-yl)-6H-thieno[2,3-b]pyrro 1e-5-carboxamide]"
17,1000 to 10000 nM,O=C(NCc1cc(F)cc(Cl)c1)[C@]1(O)CCN(c2ccc(P(=O)(C3CC3)C3CC3)cc2)C1=O [Compound 8a]
18,< 1000 nM,"O=C(NCc1cc(F)cc(Cl)c1)[C@@]1(O)CCN(c2ccc3c(c2)C2(CCC2)S(=O)(=O)N3)C1=O [Compound 19, (S)-N-(3-chloro-5-fluorobenzyl)-1-(2,2-dioxido-1H-spiro[benzo[c]isothiazole-3,1′-cyclobutan]-5-yl)-3-hydroxy-2-oxopyrrolidine-3-carboxamide]"
19,< 1000 nM,"O=C(NCc1cc(F)cc(F)c1)[C@@]1(O)CCN(c2ccc3c(c2)C2(CC2)CN3)C1=O [Compound 12, (S)-N-(3,5-difluorobenzyl)-3-hydroxy-2-oxo-1-(spiro[cyclopropane-1,3′-indoline]-5′-yl)pyrr olidine-3-carboxamide]"

# Further lines, the compound ahead of its results:
row,Compound,IC50
1,CP(C)(=O)c1ccc(N2CC[C@@](O)(C(=O)NCc3cc(F)cc(F)c3)C2=O)cn1 [Compound 6a],> 10000 nM
2,"CP(C)(=O)c1cccc(N2CC[C@](O)(C(=O)NCc3cc(F)cc(F)c3)C2=O)c1 [Compound 2, (S)-N-(3,5-difluorobenzyl)-1-(3-(dimethylphosphoryl)phenyl)-3-hydroxy-2-oxopyrrolidine-3-carboxamide]",< 1000 nM
3,CCP(=O)(CC)c1ccc(N2CC[C@@](O)(C(=O)NCc3cc(F)cc(F)c3)C2=O)cc1 [Compound 3a],1000 to 10000 nM
4,"CC(C)P(=O)(c1ccc(N2CC[C@](O)(C(=O)NCc3cc(F)cc(F)c3)C2=O)cc1)C(C)C [Compound 4, (S)-N-(3,5-difluorobenzyl)-1-(4-(diisopropylphosphoryl)phenyl)-3-hydroxy-2-oxopyrrolidine-3-carboxamide]",< 1000 nM
5,CC(C)P(=O)(c1ccc(N2CC[C@@](O)(C(=O)NCc3cc(F)cc(F)c3)C2=O)cc1)C(C)C [Compound 4a],< 1000 nM
6,CP(C)(=O)c1cccc(N2CC[C@@](O)(C(=O)NCc3cc(F)cc(F)c3)C2=O)c1 [Compound 2a],1000 to 10000 nM
7,"CC(C)P(=O)(c1ccc(N2CC[C@](O)(C(=O)NCc3cc(F)cc(Cl)c3)C2=O)cc1)C(C)C [Compound 7, (S)-N-(3-chloro-5-fluorobenzyl)-1-(4-(diisopropylphosphoryl)phenyl)-3-hydroxy-2-oxopyrr olidine-3-carboxamide]",< 1000 nM
8,"CP(C)(=O)c1ccc(N2CC[C@](O)(C(=O)NCc3cc(F)cc(F)c3)C2=O)cc1 [Compound 1, (S)-N-(3,5-difluorobenzyl)-1-(4-(dimethylphosphoryl)phenyl)-3-hydroxy-2-oxopyrrolidine-3-arboxamide]",< 1000 nM
9,O=C(NCc1cc(F)cc(Cl)c1)[C@]1(O)CCN(c2ccc(P(=O)(C3CCC3)C3CCC3)cc2)C1=O [Compound 5a],1000 to 10000 nM
10,O=C(NCc1cc(F)cc(Cl)c1)C1(O)CCN(c2ccc(P(=O)(C3CCC3)C3CCC3)cc2)C1=O (racemic) [Compound 5-7],< 1000 nM
11,"CP(C)(=O)c1ccc(N2CC[C@](O)(C(=O)NCc3cc(F)cc(F)c3)C2=O)cn1 [Compound 6, (S)-N-(3,5-difluorobenzyl)-1-(6-(dimethylphosphoryl)pyridin-3-yl)-3-hydroxy-2-oxopyrrolidine-3-carboxamide]",< 1000 nM
12,"O=C(NCc1cc(F)cc(Cl)c1)[C@@]1(O)CCN(c2ccc(P(=O)(C3CCC3)C3CCC3)cc2)C1=O [Compound 5, (S)-N-(3-chloro-5-fluorobenzyl)-1-(4-(dicyclobutylphosphoryl)phenyl)-3-hydroxy-2-oxopyrr olidine-3-carboxamide]",< 1000 nM
13,"CP(C)(=O)c1ccc(N2CC[C@@](O)(C(=O)NCc3cc(F)cc(F)c3)C2=O)cc1 [Compound 1a, (R)-N-(3,5-difluorobenzyl)-1-(4-(dimethylphosphoryl)phenyl)-3-hydroxy-2-oxopyrrolidine-3-car boxamide]",1000 to 10000 nM
14,"CCP(=O)(CC)c1ccc(N2CC[C@](O)(C(=O)NCc3cc(F)cc(F)c3)C2=O)cc1 [Compound 3, (S)-1-(4-(diethylphosphoryl)phenyl)-N-(3,5-difluorobenzyl)-3-hydroxy-2-oxopyrrolidine-3-c arboxamide]",< 1000 nM
